Experiment [1] has as its target T1, ALK5 (Homo sapiens, UniProt P36897).
T1 construct: recombinantly expressed and purified kinase domain of the transforming growth factor (TGF)-β type I receptor; made in house; host or cells: baculovirus expression system
T1 sequence (P36897 205-495 limits assumed): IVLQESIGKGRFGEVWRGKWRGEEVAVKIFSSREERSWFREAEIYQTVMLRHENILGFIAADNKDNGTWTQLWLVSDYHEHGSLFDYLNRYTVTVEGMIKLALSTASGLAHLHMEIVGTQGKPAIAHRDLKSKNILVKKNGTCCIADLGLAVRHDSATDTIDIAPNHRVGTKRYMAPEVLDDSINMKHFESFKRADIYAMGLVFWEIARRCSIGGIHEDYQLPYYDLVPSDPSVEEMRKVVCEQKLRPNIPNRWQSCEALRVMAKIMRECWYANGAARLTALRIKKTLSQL
The experiment is described as follows: FSBA covalent modification and protection by competitors, followed by LC/MS. Conditions: for Mass Peak (relative percentage), FSBA-modified ALK5 peak: peak 35,405 Da; for Mass Peak (relative percentage), unmodified ALK5 peak: peak 34,972 Da. It is filed as binding.

Experiment [2] deals with T2, ALK4 (Homo sapiens, UniProt P36896).
T2 sequence (P36896 24-505): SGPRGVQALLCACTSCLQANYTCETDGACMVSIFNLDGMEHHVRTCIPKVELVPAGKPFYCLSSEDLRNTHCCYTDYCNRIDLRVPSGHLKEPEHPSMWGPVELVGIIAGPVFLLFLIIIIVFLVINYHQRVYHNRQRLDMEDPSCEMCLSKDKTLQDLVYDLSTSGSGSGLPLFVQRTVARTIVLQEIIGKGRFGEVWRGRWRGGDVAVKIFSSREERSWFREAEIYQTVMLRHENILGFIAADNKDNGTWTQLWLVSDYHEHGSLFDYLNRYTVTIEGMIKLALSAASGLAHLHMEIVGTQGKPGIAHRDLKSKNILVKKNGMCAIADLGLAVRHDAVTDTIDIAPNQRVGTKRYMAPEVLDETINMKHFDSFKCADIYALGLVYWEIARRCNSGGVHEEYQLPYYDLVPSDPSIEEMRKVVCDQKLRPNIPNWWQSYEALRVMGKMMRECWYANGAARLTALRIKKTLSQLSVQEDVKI
The description is as above. It is filed as binding. The conditions noted are these: for Mass Peak (relative percentage), unmodified ALK4 peak: peak 35,025 Da; for Mass Peak (relative percentage), FSBA-modified ALK4 peak: peak 35,459 Da.

Experiment [3] relates to proteins in HeLa cell lysate. The experiment is described as follows: Profiling kinases from complex proteome with biotin-FSBA, Western blot. It counts as binding. In general terms: In western blotting, separated proteins are transferred to a membrane and probed.
Experiment [4] relates to human ROCK1 (hROCK1).
In experiment [5] the target is T3, ALK5 (kinase domain of the TGF-β type I receptor) (Homo sapiens, UniProt P36897).
T3 construct: recombinantly expressed and purified kinase domain of the transforming growth factor (TGF)-β type I receptor; made in house; host or cells: baculovirus expression system
T3 sequence (P36897 205-495 limits assumed): T1 sequence (P36897 205-495 limits assumed)
The experiment is described as follows: ^14C-FSBA affinity labeling detected by autoradiography. It counts as binding. Conditions: ˜20 μM ^14C-FSBA, 1 hour.

The target in experiment [6] is CDK2 (Homo sapiens, UniProt P24941). The experiment is described as follows: FSBA covalent modification and protection by competitors, followed by LC/MS. It counts as binding. Conditions: for Mass Peak (relative percentage), unmodified CDK2 peak: peak 33,971 Da; for Mass Peak (relative percentage), FSBA-modified CDK2 peak: peak 34,404 Da.
Experiment [7] addresses T1, ALK5. The experiment is described as follows: Biotin-FSBA binding and competition detected by Western blot (avidin-HRP). Conditions: biotin-FSBA 20 μM.

The values that follow come from patent US20060234327A1, “Methods for identifying enzyme inhibitors and protein kinases” (priority 2003, published 2006).

With `CN[C@@H]1C[C@H]2O[C@@](C)([C@@H]1OC)n1c3ccccc3c3c4c(c5c6ccccc6n2c5c31)C(=O)NC4` [staurosporine], the “Effect of staurosporine on FSBA binding to ALK5” value in experiment [1] is “essentially blocked”. Further, the “Effect of staurosporine on FSBA binding to ALK4” value in experiment [2] was “essentially blocked”. Besides, the “Effect on biotin-FSBA band intensity in HeLa cell lysate” value in experiment [3] (80 μg lysate, 500 μM staurosporin 2 hours, then biotin-FSBA 20 μM 4 hours, Western blot (Example 12)) is “reduced intensity in selective bands”; in experiment [3] (staurosporin 500 μM 2 hours, then biotin-FSBA 4 hours, Western blot (Example 11)), “dramatic decrease in band intensity for selected bands”.

Take `C[C@@H](N)[C@H]1CC[C@H](C(=O)Nc2ccncc2)CC1` [Y-27632]: the “Effect on FSBA binding to ALK5” value in experiment [1] (5 μg ALK5, FSBA 40 μM, about 2 hours, LC/MS) was “had no effect on FSBA binding to ALK5”. Besides, the “Effect on FSBA labeling of ALK5” value in experiment [1] (10 μg ALK5, 10 μM FSBA, 3 hours at room temperature, LC/MS) is “did not inhibit FSBA labeling of ALK5”. Further, in experiment [4], the “Effect on FSBA labeling of ROCK1” value was “abrogated FSBA labeling of ROCK1”, the “Inhibition of FSBA labeling of hROCK1” value is on record as “inhibits hROCK1 at a 1:1 ratio” and the “Mode of action on hROCK1” value was “competitive inhibitor of hROCK1”.

In the case of `Nc1ncnc2c1ncn2[C@@H]1O[C@H](COP(=O)(O)OP(=O)(O)OP(=O)(O)O)[C@@H](O)[C@H]1O` [ATP], the “Effect of ATP on ^14C-FSBA labeling of ALK5 by autoradiography” value in experiment [5] (1 mM ATP) was “most of the labeling was blocked”; in experiment [5] (10 mM ATP), “autoradiograph did not detect ^14C-FSBA binding”. Further, the “Mass Peak (relative percentage), FSBA-modified ALK5 peak” value in experiment [1] (FSBA 10 μM plus ATP 50 μM) is 35,405 Da (100%); in experiment [1] (FSBA 10 μM plus ATP 100 μM) it was 35,405 Da (70%),. The “Mass Peak (relative percentage), unmodified ALK5 peak” value in experiment [1] (FSBA 10 μM plus ATP 100 μM) is reported as 34,972 Da (30%); in experiment [1] (FSBA 10 μM plus ATP 500 μM) it was 34,972 Da (100%). In addition, the “ATP concentration at which most of the covalent modification of ALK5 by FSBA was inhibited” value in experiment [1] (FSBA 10 μM, LC/MS) came out at 0.5 mM. The “Mass Peak (relative percentage), unmodified ALK4 peak” value in experiment [2] (FSBA 10 μM plus ATP 50 μM) is 35,025 Da (5%); in experiment [2] (FSBA 10 μM plus ATP 100 μM) it was 35,025 Da (30%); in experiment [2] (FSBA 10 μM plus ATP 500 μM), 35,025 Da (100%). Besides, the “Mass Peak (relative percentage), FSBA-modified ALK4 peak” value in experiment [2] (FSBA 10 μM plus ATP 50 μM) is 35,459 Da (95%),; in experiment [2] (FSBA 10 μM plus ATP 100 μM), 35,459 Da (70%),. Moreover, the “ATP concentration at which most of the covalent modification of ALK4 by FSBA was inhibited” value in experiment [2] (FSBA 10 μM, LC/MS) worked out at 0.5 mM. In addition, the figures for the “Mass Peak (relative percentage), unmodified CDK2 peak” value in experiment [6] (FSBA 10 μM plus ATP 1 mM), in experiment [6] (FSBA 10 μM plus ATP 5 mM) and in experiment [6] (FSBA 10 μM plus ATP 10 mM) were 33,971 Da (20%), 33,971 Da (90%) and 33,971 Da (100%), respectively. The “Mass Peak (relative percentage), FSBA-modified CDK2 peak” value is 34,404 Da (80%), in experiment [6] (FSBA 10 μM plus ATP 1 mM) and 34,404 Da (10%), in experiment [6] (FSBA 10 μM plus ATP 5 mM). The “ATP concentration necessary to block FSBA binding to CDK2” value in experiment [6] (FSBA 10 μM, LC/MS) stood at 5 mM. Further, in experiment [7], the “ATP concentration at which biotin-FSBA/ALK5 bands were no longer visible” value is reported as at least 1.0 mM.
